Measured values taken from patent US9125937B2, “Labelled analogues of halobenzamides as multimodal radiopharmaceuticals and their precursors” (INSTITUT NATIONAL DE LA SANTE ET DE LA RECHERCHE MEDICALE …, priority 2008, dated 2015).
Values joined by “and” are separate entries in the source; they are usually repeats but may differ in a detail not shown here. Equal entries are not always repeated. Structures can show the parent of a compound that is named as a salt. Blank lines part the entries; values can stand above or below the compound they belong to.

Experiments:
[1] = test system: B16F10 and B16F0 murine melanoma tumour grafts; assay: Ex vivo biodistribution by organ counting after PET imaging; format: in vivo; settings: two-and-a-half and four-and-a-half hours after i.v. injection, FIG. 4
Protocol: Imaging Protocol. Three sets of mice were prepared for PET imaging as described in FIG. 3 in annex: • (Set 1) Four C57BL6 mice bearing both B16F10 and B16F0 murine melanoma tumour grafts on the flanks were anaesthetized with isoflurane and injected with [^18F]10 (200 μCi). Two were imaged immediately during the first hour after injection, allowed to recover from anaesthesia, anaesthetized again at two hours post injection and imaged between two and two-and-a-half hour after injection, allowed to recover from anaesthesia, anaesthetized again at four hours post injection and imaged between four and four-and-a-half hour after injection, then sacrificed and their organs weighed and counted. […]
Biodistribution. [^18F]10 biodistribution was analysed for the mice of set 1 (n=4) four-and-a-half hours after injection, and for the mice of set 2 (n=2) two-and-a-half hours after injection. Animals were sacrificed by lethal injection of pentobarbital and organs were collected, weighed and radioactivity of each sample was measured on a Cobra gamma counter (Packard). […]

[2] = test system: B16F10 and B16F0 murine melanoma tumour grafts; assay: PET imaging of melanoma-bearing mice; format: in vivo, C57BL6 mice
Protocol: Imaging Protocol. Three sets of mice were prepared for PET imaging as described in FIG. 3 in annex: • (Set 1) Four C57BL6 mice bearing both B16F10 and B16F0 murine melanoma tumour grafts on the flanks were anaesthetized with isoflurane and injected with [^18F]10 (200 μCi). Two were imaged immediately during the first hour after injection, allowed to recover from anaesthesia, anaesthetized again at two hours post injection and imaged between two and two-and-a-half hour after injection, allowed to recover from anaesthesia, anaesthetized again at four hours post injection and imaged between four and four-and-a-half hour after injection, then sacrificed and their organs weighed and counted. Two other mice were allowed to recover from anaesthesia, anaesthetized at two hours post injection and imaged between two and two-and-a-half hour after injection, allowed to recover from anaesthesia, anaesthetized again at four hours post injection and imaged between four and four-and-a-half hour after injection, then sacrificed and their organs weighed and counted. • (Set 2) Two C57BL6 mice bearing both B16F10 and B16F0 murine melanoma tumour grafts on the shoulders (so as to avoid contaminating signals originating from with digestive and urinary tracts) were injected with [^18F]10 (200 μCi), imaged under isoflurane anesthesia continuously during two hours, then sacrificed and their organs weighed and counted. • (Set 3) One C57BL6 mouse bearing both B16F10 and B16F0 murine melanoma tumour grafts on the shoulders (so as to avoid contaminating signals originating from with digestive and urinary tracts) was injected with [^18F]10 (600 μCi), allowed to recover, anaesthetized with isoflurane six hours post injection, imaged during 30 minutes between six and six-and-a-half hours post injection.
PET Imaging. […] All values of radioactivity concentrations were normalized for radioactivity decay, as well as by the injected dose of radiotracer, and expressed as percentage of the injected dose per volume of tissue (% ID/cc). […]

B16 F0 murine melanoma = assay: Biodistribution study by planar scintigraphic imaging (gamma camera), tumour uptake quantification; format: in vivo, C57BL6 male mice; settings: i.v.
Protocol: (§1) Tumour Implantation. For transplantation, cells grown in monolayer culture to confluence were trypsinized and washed with phosphate buffer saline (PBS). They were resuspended in PBS and each mouse received 0.1 mL subcutaneously (3×10^5 cells) on the left flank in order to allow a tumour growth on the body side. Ten days later, the tumours became palpable with a percentage of tumour take of 98-100%.
The in vivo biodistribution and kinetic profile of each radiolabelled (iodine-125) compound have been studied in C57BL6 male mice bearing the B16 F0 murine melanoma by repeated planar scintigraphic imaging which allows the tumour uptake follow-up in the same animal.
Gamma Camera. In vivo radionuclide imaging was performed using a γ IMAGER (Biospace Mesures, Paris, France) especially dedicated for small animal, a scintigraphic camera with a continuous 4 mm thick×120 mm diameter CsI(Na) crystal, a position-sensitive Hamamatsu R3292 photomultiplier and a 10 cm field of view.
Imaging Protocol. On day 14 after tumour implantation (tumour weight 0.25±0.10 g) each [^125I]-radioiodinated compound was administered intravenously via a tail vein (0.1 μmol, range 3.7 to 7 MBq/animal) in three mice for each compound. At different times after administration (1, 3, 6, 24, 72 hours, 5, 7, 10 and 15 days), mice were anesthetized with 0.2 mL, for a 20 g mouse, of a ketamine-xylazine mixture in saline (1-0.25 mL for 5 mL) by i. p. administration, and repeated planar scintigraphic whole body imaging (mouse laying in anterior position on the camera field) were performed by an acquisition time of 10 min. For this study, the camera was equipped with a 1.8/0.2/20 collimator (hole diameter/septum thickness/height in mm).
Tumoural Radioactivity Quantification Approach. The injected activity to each mouse was determined from scintigraphic imaging of the syringe before and after the injection using the γ-IMAGER.
Regions of interest (ROIs) were delineated over the whole body image: whole body uptake area (or the various fixing areas, eyes, thyroid and abdomen) and one for the tumour uptake area. In the various ROIs, the activity (cpm) was quantified using the Biospace measures γ VISION+software. These values were normalized to the injected dose. For the tumour, the activity was also normalized to the tumour weight. Firstly, the volume was calculated from the two dimensions caliper measurement (Bissery, M. C.; Guenard, D.; Gueritte-Voegelin, F.; Lavelle, F. Experimental antitumour activity of taxotere (RP 56976, NSC 628503) a taxol analogue. Cancer res. 1991, 51, 4845-4852). Secondly, the weight was determined from the volume value corrected by a factor determined from a large panel of experiments (Weight g=volume mm^3×0.6). The data were expressed as % ID/g of B 16F0 melanoma tumour.

B16F0 melanoma tumour [3] = assay: Tumour uptake by whole body sectioning autoradiography; format: in vivo, mice
Excerpt: (ii) A comparison camera quantified in vivo values with values determined using the whole body sectioning conventional autoradiographic method has been done for several compounds. The correlation coefficient obtained between the two methods was 0.92.
(§2) (iii) For the compound N-(2-diethylaminoethyl)-6-iodoquinoxaline-2-carboxamide, which is described in PCT application n°PCT/IB2007/052992 as compound n°45 in table I of said patent application (hereinafter called “ICF01012”), the tumour uptake has been quantified by 3 methods: camera imaging, autoradiography and counting of tumour tissue after dissection (gamma counter), values are summarized below.

B16F0 melanoma tumour [4] = assay: Tumour uptake by counting of tumour tissue after dissection (gamma counter); format: in vivo, mice
Excerpt: as §2

[5] = test system: subcutaneous B16F0 melanoma; assay: Radionuclide therapy experiment (anti-tumoural efficacy); format: in vivo, C57BL/6J mice
Protocol: Animals. All experiments were carried out in accordance with the institution recommendations based on the guide for the care and use of laboratory animals. For therapy experiment, we used 6- to 8-week-old C57BL/6J male mice (Charles River Laboratories).
as §1
[^131I]11 treatment was administered intravenously at days 6 and 10 after tumour implantation (2×18.5 MBq) in groups of 10 mice. In the same conditions untreated-animals were studied. From three days before the treatment and along the experiment, lugol's iodine solution was added in the two mice groups alimentation to block iodine thyroid uptake. To monitor tumoral growth, tumor volume in mm^3 was calculated twice a week from the measurement of two perpendicular diameters using a caliper according to the formula L×S^2/2 where L and S are the largest and smallest diameters in mm respectively. At day 19 of the experiment, mice were sacrificed. Tumours were removed, dissected and weighted.
Statistical Analyses. In experiment data are given as mean+SEM and were analyzed by the Student or ANOVA tests.
Anti-tumoural Efficacy of Targeted Radionuclide Therapy. To assess the therapeutic efficacy of compound [^131I]11 in C57BL/6J mice bearing subcutaneous B16F0 melanoma cells, we injected twice 18.5 MBq [^131I]11 into group of 10 mice. […] The body weight of mice in all groups was stable (data not shown). The weight of tumours at 19 days were 2.29±1.03 g and 0.72±0.28 g respectively for controls and treated.

Compound: CCN(CCNC(=O)c1cnc2cc(I)ccc2n1)CCOc1cccnc1[18F] [[^18F]10, [^18F]N-[2-[N-ethyl-N-[2-(2-fluoropyridin-3-yloxy)ethyl]amino]ethyl]-6-iodoquinoxaline-2-carboxamide]
Biodistribution in selected organs (% ID/CC), tumour targeting [1]: specifically target melanoma tumours in vivo
Uptake (% injected dose per volume tumour graft) in B16F0 relative to B16F10 tumour grafts ([2]; 2 and 4 hours post injection, same animal, FIGS. 5 and 6): more than two-to-three times higher
Uptake in B16F0 with respect to B16F10 ([2]; dynamic PET, FIG. 7, Set 2): two-to-three times higher
Contrast between melanoma grafts and surrounding tissue on PET images ([2]; two to two-and-a-half hours and six to six-and-a-half hours post injection): evident contrast

Compound: CCN(CC)CCNC(=O)c1cnc2cc([125I])ccc2n1 [[^125I]ICF01012, reference compound]
Radioactive concentration in tumour (tumoural uptake) (B16 F0 murine melanoma; 1 H post injection): 21.8 ± 6.6 % ID/g
Radioactive concentration in tumour (tumoural uptake) (B16 F0 murine melanoma; 3 H post injection): 26.2 ± 6.6 % ID/g and 26.3 ± 6.6 % ID/g
Radioactive concentration in tumour (tumoural uptake) (B16 F0 murine melanoma; 6 H post injection): 29.6 ± 8.4 % ID/g
Radioactive concentration in tumour (tumoural uptake) (B16 F0 murine melanoma; 24 H post injection): 28.0 ± 8.1 % ID/g and 28.0 ± 8.2 % ID/g
Radioactive concentration in tumour (tumoural uptake) (B16 F0 murine melanoma; 72 H post injection): 12.3 ± 3.7 % ID/g
Radioactive concentration in tumour (tumoural uptake) (B16 F0 murine melanoma; 120 H post injection): 7.3 ± 3.6 % ID/g
Radioactive concentration in tumour (tumoural uptake) (B16 F0 murine melanoma; 168 H post injection): 3.4 ± 0.3 % ID/g
Radioactive concentration in tumour (tumoural uptake) (B16 F0 murine melanoma; 240 H post injection): 1.9 ± 0.4 % ID/g
Radioactive concentration in tumour (B16F0 melanoma tumour [3]; 1 H): 17 ± 11.1 % ID/g
Radioactive concentration in tumour (B16F0 melanoma tumour [3]; 3 H): 27.7 ± 7.0 % ID/g
Radioactive concentration in tumour (B16F0 melanoma tumour [3]; 6 H): 36.4 ± 7.6 % ID/g
Radioactive concentration in tumour (B16F0 melanoma tumour [3]; 24 H): 21.7 ± 10.8 % ID/g
Radioactive concentration in tumour (B16F0 melanoma tumour [3]; 72 H): 12.5 ± 1.6 % ID/g
Radioactive concentration in tumour (B16F0 melanoma tumour [4]; 1 H): 14.9 ± 5.7 % ID/g
Radioactive concentration in tumour (B16F0 melanoma tumour [4]; 3 H): 28.1 ± 8.9 % ID/g
Radioactive concentration in tumour (B16F0 melanoma tumour [4]; 6 H): 29.9 ± 2.8 % ID/g
Radioactive concentration in tumour (B16F0 melanoma tumour [4]; 24 H): 29.7 ± 3.1 % ID/g
Radioactive concentration in tumour (B16F0 melanoma tumour [4]; 72 H): 11.4 ± 2.6 % ID/g

Compound: CCN(CCNC(=O)c1ccc2cc(I)ccc2n1)CCOc1cccnc1F.Cl.Cl
melting point: 99 to 101 °C (dec.)

Compound: CCN(CCNC(=O)c1cnc2cc([131I])ccc2n1)CCOc1cccnc1F [[^131I]11, [^131I]N-[2-[N-ethyl-N-[2-(2-fluoropyridin-3-yloxy)ethyl]amino]ethyl]-6-iodoquinoxaline-2-carboxamide dihydrochloride salt]
Weight of tumours at 19 days ([5]; 2×18.5 MBq i.v. at days 6 and 10, controls 2.29±1.03 g, p=0.01): 0.72 ± 0.28 g
Tumour doubling time ([5]; 2×18.5 MBq i.v. at days 6 and 10 after tumour implantation, untreated 2.82±0.30 days): 3.83 ± 0.34 days
Body weight of mice ([5]; all groups, data not shown): stable
Ratio T/C of tumour weight at 19 days ([5]; treated vs controls): 0.31
Effect on B16F0 tumoural growth ([5]; tumour volume, p<0.001 vs untreated): significantly slowed the B16F0 tumoural growth

Compound: CCN(CC)Cc1ccnc(F)c1CNC(=O)c1cnc2cc(I)ccc2n1 [Compound 91, N-[[4-(N,N-diethylaminomethyl)-2-fluoropyridin-3-yl]methyl]-6-iodoquinoxaline-2-carboxamide]
melting point: 147 to 149 °C

Compound: CCN(CC)CCNC(=O)c1cnc2ccc(I)cc2c1F [Compound 96, N-[2-(diethylamino)ethyl]-4-fluoro-6-iodoquinoline-3-carboxamide]
melting point: 88 to 90 °C and 89 °C

Compound: CCN(CCNC(=O)c1ccnc(F)c1)CCNC(=O)c1cnc2cc(I)ccc2n1 [Compound 39, N-[2-[N-ethyl-N-[2-[[(2-fluoropyridin-4-yl)carbonyl]amino]ethyl]amino]ethyl]-6-iodoquinoxaline-2-carboxamide]
melting point: 146 to 148 °C

Compound: CCN(CCNC(=O)c1cnc2cc(I)ccc2n1)CCNc1cccc(Br)n1 [Compound 63, N-[2-[N-[2-[(6-bromopyridin-2-yl)amino]ethyl]-N-(ethyl)amino]ethyl]-6-iodoquinoxaline-2-carboxamide]
melting point: 49 to 51 °C and 50 °C

Other lines, results leading:

melting point: 157 to 159 °C
Compound: CCN(CCNC(=O)c1ccnc(F)c1)CCNC(=O)c1cnc2cc(I)ccc2n1.Cl.Cl

melting point: 143 to 145 °C
Compound: CCN(CCNC(=O)c1cn2cc(I)ccc2n1)CCOc1cccnc1F.Cl.Cl

melting point: 127 to 129 °C (dec.)
Compound: CCN(CCNC(=O)c1cccc2nc3cc(I)ccc3nc12)CCOc1cccnc1F.Cl.Cl

melting point: 99 to 101 °C (dec.)
Compound: CCN(CCNC(=O)c1cnc2cc(I)ccc2n1)CCNc1cccc(F)n1.Cl.Cl
